{"source": "patent US6291676A", "about": "“Water-soluble derivatives of camptothecin/homocamptothecin” (priority 2000, dated 2001)", "key": {"[1]": {"system": "topoisomerase I", "assay": "Topoisomerase I mediated DNA cleavage (cleavable complex induction)", "format": "biochemical", "description": "Evaluation of the Relative Abilities of the Novel Polyamine Camptothecin Analogs to Induce Topoisomerase I Mediated DNA Single Strand Breaks. We have evaluated the abilities of the novel compounds of the present invention to inhibit the topoisomerase I enzyme. In these experiments the oligonucleotide was labeled at the 3'-end of the upper (scissile) strand with 32P-α-cordycepin and terminal transferase (Pommier, Y., Kohlhagen, G., Kohn, F., Leteurtre, F., Wani, M. C., and Wall, M. E. Proc. Natl. Acad. Sci. U.S.A. 92:8861-8865, 1995). Topoisomerase I (Top1) cleavage generates a 23mer that can be easily detected by electrophoresis and quantitated by Phosphorimager analysis. Tanizawa et al. (Tanizawa, A., Kohn, K. W., Kohlhagen, G., Leteurtre, F., and Pommier, Y. Biochemistry […]:7200-7206, 1995) have previously shown that camptothecin derivatives differ in the manner in which they stabilize the top1 cleavable complexes that they induce. The novel polyamine camptothecins of the present invention were compared in this assay. 0.35M NaCl was added to force top 1-mediated DNA religation and DNA cleavage was measured at various times after NaCl addition. FIG. 9 is a typical phosphoimager picture showing the timecourse of the effects of various camptothecins on the relaxation of DNA in the presence of topoisomerase I. Topoisomerase I-mediated cleavage generates DNA fragments that can be readily detected by electrophoresis and quantitated by phosphorimager analysis.\nFIG. 10 is a phosphoimager picture showing the dose response of various camptothecin compounds described in the present invention on the relaxation of DNA in the presence of topoisomerase I. Topoisomerase I-mediated cleavage generates DNA fragments that can be readily detected by electrophoresis and quantitated by phosphorimager analysis as shown.\nFIG. 11 contains a phosphoimager picture (bottom figure) showing the dose response effects of several of the novel polyamine camptothecins of the current invention on the relaxation of DNA in the presence of topoisomerase I. Topoisomerase I-mediated cleavage generates DNA fragments that can be readily detected by electrophoresis and quantitated by phosphorimager analysis (top figure)."}, "[2]": {"assay": "Fluorescence emission spectra in solvents and vesicle suspensions", "format": "physicochemical", "settings": "37° C", "experimental": "FIG. 1 is the fluorescence emission spectra of 1 μM of 7-(1-Aminoethyl)camptothecin (7AEC) in various solvents and suspensions such as phosphate buffered saline, ethanol, and phosphate buffered saline containing small unilamellar vesicles (SUVs) composed either of dimyristoylphosphatidylcholine (DMPC) or dimyristoylphosphatidlyglycerol (DMPG). Experiments were conducted at 37° C. using exciting light of 370 nm.\nFIG. 2 is the fluorescence emission spectra of 4 μM of 7-[N-(4-methyl-1-piperazino) aminomethyl]-(20S)-camptothecin (CT-17) in various solvents and suspensions such as phosphate buffered saline, ethanol, and phosphate buffered saline containing small unilamellar vesicles (SUVs) composed either of DMPC or DMPG. Experiments were conducted at 37° C. using exciting light of 370 nm.\nFluorescence Instrumentation. Steady-state fluorescence measurements were obtained on a SLM Model 9850 spectrofluorometer with a thermostated cuvette compartment. This instrument was interfaced with an IBM PS/2 model 55 SX computer. Excitation and emission spectra were recorded with an excitation resolution of 8 nm and an emission resolution of 4 nm. In all cases spectra were corrected for background fluorescence and scatter from unlabeled lipids or from solvents by subtraction of the spectrum of a blank. Steady-state fluorescence intensity measurements were made in the absence of polarizers. […]"}, "[3]": {"assay": "HPLC lactone stability in presence of DMPC SUV", "format": "physicochemical", "settings": "for less lactone compared to the prior art monoamine (7AEC): DMPC", "experimental": "To further study the differential interactions of CT-17 versus 7AEC with liposomal particles, high performance liquid chromatographic (HPLC) methods were employed to study drug stabilities in the absence and presence of membranes. In these experiments, small unilamellar vesicles (SUV) composed of dimyristoyl phosphatidylcholine (DMPC) were prepared by weighing out dry lipid powder (Avanti Polar Lipids) in a glass tube with screw cap top. The lipid was suspended in phosphate buffered saline, pH 7.4, at the concentration of 20 mg/ml and vortexed vigorously for 1 minute. The suspension was sonicated in a bath-type sonicator (Laboratory Supplies Co., Hicksville, N.Y.) for 2-4 hours until optically clear solution is obtained. […] A decrease in pH from 7.4 to 7.2 was observed. The pH of the SUV preparation was adjusted to 7.4 by the addition of 0.1 M potassium hydroxide. The sample was resonicated after pH adjustment until optically clear. Small unilamellar vesicles composed of dimyristoyl phosphatidylglycerol (DMPG) were also prepared by weighing out dry powder of the lipid (Avanti Polar Lipids) in a glass tube with screw-cap top and prepared as in the case of DMPC. The pH of the preparation decreased from 7.4 to 6.9 and was adjusted to 7.4 by the addition of 0.1 M KOH. The preparation was resonicated for 30 minutes until optically clear.\nStock solutions of 7-(1-Aminoethyl)camptothecin, a monoamine compound known in the prior art, and CT-17 as prepared in Example 18 were prepared by weighing out dry powder and dissolving in dimethylsulfoxide (DMSO) at a concentration of 2 mM. The SUV preparations from above were incubated at 37° C. in a water bath for 30 minutes. The two camptothecin drugs were added to the SUV preparations such that the final drug concentrations were 1 μM. The samples were incubated at 37° C. and aliquots were withdrawn at 1 hour and 3 hours and added to cold methanol (-20° C.) and immediately analyzed by reversed-phase HPLC using the conditions as follows. Analysis was performed using either Waters Alliance 2690 LC system equipped with temperature controlled autosampler or Waters LC system equipped with temperature controlled 717 plus Autosampler and 501 pumps. The detection was using either Waters 470 or 474 fluorescence detectors. Solvent A was 2% triethylammonium acetate, pH 5.5 and Solvent B was acetonitrile. The column used was Waters Symmetry C18, 5 μm (3.9×150 mm). The autosampler temperature was maintained at 4-5° C. The conditions used for analysis of 7-(1-Aminoethyl)camptothecin: Isocratic elution using 15% of solvent A and 85% of solvent B; detection using λcx =370 and λcm =440. […] The HPLC data was collected and analyzed using Waters Millenium chromatography manager."}}, "data": [{"smiles": "CC[C@@]1(O)C(=O)OCc2c1cc1n(c2=O)Cc2c-1nc1ccccc1c2CNN1CCN(C)CC1", "note": "[CT-17, 7-[N-(4-methyl-1-piperazino)aminomethyl]-(20S)-camptothecin]", "values": [{"measurement": "potency at promoting DNA cleavage relative to camptothecin and SN-38", "setting": "[1]; FIG. 11 quantitation", "value": "somewhat less potent"}, {"measurement": "distribution of cleavage sites vs camptothecin or SN-38", "setting": "[1]; topoisomerase I", "value": "comparable to those generated by camptothecin or 7-ethyl-10-hydroxycamptothecin (SN-38)"}, {"measurement": "induction of cleavable complex formation", "setting": "[1]; topoisomerase I, 3'-32P-labeled oligonucleotide", "value": "capable of inducing cleavable complex formation"}, {"measurement": "change of fluorescence emission upon introduction of lipid bilayers", "setting": "[2]; PBS with lipid bilayers", "value": "increase in fluorescence intensity"}, {"measurement": "shift of the fluorescence emission spectra in the presence of liposomes", "setting": "[2]; liposomes of DMPC or DMPG, λex 370 nm", "value": "shifts to shorter wavelength"}, {"measurement": "remaining at 1 h, 1 µM", "setting": "[3]; DMPC SUV, PBS pH 7.4, 37° C, 1 hr, 1 μM drug, read-out: Percentage of Lactone, DMPC, 1 Hr", "value": "34 ± 3", "unit": "%"}, {"measurement": "remaining at 3 h, 1 µM", "setting": "[3]; DMPC SUV, PBS pH 7.4, 37° C, 3 hr, 1 μM drug, read-out: Percentage of Lactone, DMPC, 3 Hr", "value": "19 ± 3", "unit": "%"}, {"measurement": "less lactone compared to the prior art monoamine (7AEC)", "setting": "[3]; 1 hr", "value": 20, "unit": "%"}, {"measurement": "less lactone compared to the prior art monoamine (7AEC)", "setting": "[3]; 3 hr", "value": 17, "unit": "%"}]}]}
